Like-named read-outs stand apart in the source and are kept apart here.
How the values were obtained:
Assay type in all cases: cell-based
OCI-LY3 cells = assay: Resazurin cell viability assay in DLBCL cells (OCI-LY3); conditions: Homo sapiens, OCI-Ly3, 72 h, OCI-LY3 cells (BTK independent), 50% growth inhibition, read-out: OCI-LY3 Prol GI50
How it was run: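 BTK-independent OCI-LY3 cells were treated 72 h at 37° C/5% CO2 with an 8-point 1:4 series from 10 μM, in triplicate, versus DMSO. Viability was read by resazurin (13 μg/ml final, 2 h) fluorescence at 530/600 nm. GI50 was curve-fitted, typically from ≥2 independent experiments.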

TMD8 cells = assay: Resazurin cell viability assay in DLBCL cells (TMD8); conditions: TMD8 cells (BTK dependent), 50% growth inhibition, read-out: TMD8 Prol GI50
How it was run: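 Cells seeded at 1×10^4 per well in triplicate, treated 3 h later for 72 h with an 8-point 1:4 dilution series starting at 1 μM. Resazurin (13 μg/ml final) added for the last 2 h; resorufin fluorescence read at 530/600 nm. GI50 versus vehicle control, usually from ≥2 independent experiments.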

BTK(C481S)-GFP = target: T1, BTK(C481S)-GFP (Homo sapiens, UniProt Q06187+Q96SW2, C481S); assay: BTK(C481S)-GFP protein abundance flow cytometry assay in TMD8 cells; conditions: for BTK (C481S) Amax %: % protein remaining at concentration of maximum degradation; for DC50: concentration at which 50% maximal degradation was observed
T1 construct: with a mutagenesis reaction on pENTR221-BTK (STOP-Leu); CHYSEL (cis-acting hydrolase element, 2A) remnant after GFP; mCherry is split off as a separate protein (C); expressed in transfected cells; host or cells: TMD8 cells, lentiviral transduction with pLenti6-BTK(C481S)-GFP-CHYSEL-mCherry
Method: Compounds of the invention were tested in the following cellular assays. The terms in Table 1 are defined as follows: DC50 refers to the concentration at which 50% maximal degradation was observed; deg Amax is the extent of degradation and the value refers to the % protein remaining at the concentration at which maximum degradation is seen; Prol GI50 refers to the proliferation data and defines the concentration at which 50% growth inhibition was observed compared to the vehicle treated control at the end of the incubation time. TMD8 cells are BTK dependent and OCI-LY3 cells are BTK independent.
BTK(C481S)-GFP Protein Abundance Flow Cytometry Assay in TMD8 Cells:
Degradation of BTK(C481S) was measured in TMD8 cells expressing BTK(C481S)-GFP and mCherry from a stably integrated second generation bicistronic BTK(C481S)-GFP-CHYSEL-mCherry construct. Reduction of the GFP signal measured by flow cytometry served as readout for BTK(C481S) degradation after degrader treatment.

T1 sequence (Q06187 whole entry C481S): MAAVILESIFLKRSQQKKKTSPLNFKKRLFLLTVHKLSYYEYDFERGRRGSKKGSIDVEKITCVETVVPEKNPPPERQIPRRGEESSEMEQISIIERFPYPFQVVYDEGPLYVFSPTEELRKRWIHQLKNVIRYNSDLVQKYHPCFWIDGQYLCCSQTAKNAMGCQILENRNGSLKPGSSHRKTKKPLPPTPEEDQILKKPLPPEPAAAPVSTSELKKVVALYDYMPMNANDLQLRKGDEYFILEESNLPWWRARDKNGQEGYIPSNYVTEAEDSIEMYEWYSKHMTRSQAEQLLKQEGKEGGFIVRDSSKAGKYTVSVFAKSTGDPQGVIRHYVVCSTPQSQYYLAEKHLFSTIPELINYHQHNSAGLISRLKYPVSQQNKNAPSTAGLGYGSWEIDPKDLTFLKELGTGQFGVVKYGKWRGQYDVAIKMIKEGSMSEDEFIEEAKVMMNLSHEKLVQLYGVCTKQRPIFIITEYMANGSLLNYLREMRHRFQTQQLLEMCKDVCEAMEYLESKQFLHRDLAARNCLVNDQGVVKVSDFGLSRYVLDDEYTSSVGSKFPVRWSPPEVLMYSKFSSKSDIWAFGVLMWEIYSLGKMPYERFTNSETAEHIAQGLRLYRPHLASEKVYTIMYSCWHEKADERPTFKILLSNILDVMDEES
T1 sequence (Q96SW2 whole entry): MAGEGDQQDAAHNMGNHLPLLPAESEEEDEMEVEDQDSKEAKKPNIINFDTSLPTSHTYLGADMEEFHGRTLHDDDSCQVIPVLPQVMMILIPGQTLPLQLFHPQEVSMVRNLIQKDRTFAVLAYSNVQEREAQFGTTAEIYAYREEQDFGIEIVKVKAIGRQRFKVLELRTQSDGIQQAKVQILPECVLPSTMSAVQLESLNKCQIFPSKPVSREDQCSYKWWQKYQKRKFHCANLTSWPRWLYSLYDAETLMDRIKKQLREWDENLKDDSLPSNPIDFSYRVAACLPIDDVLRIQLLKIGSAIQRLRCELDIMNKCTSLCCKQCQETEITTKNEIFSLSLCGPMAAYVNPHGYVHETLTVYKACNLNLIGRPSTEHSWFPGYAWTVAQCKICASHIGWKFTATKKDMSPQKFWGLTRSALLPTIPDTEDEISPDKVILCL
T1 sequence (Q16531 whole entry partner): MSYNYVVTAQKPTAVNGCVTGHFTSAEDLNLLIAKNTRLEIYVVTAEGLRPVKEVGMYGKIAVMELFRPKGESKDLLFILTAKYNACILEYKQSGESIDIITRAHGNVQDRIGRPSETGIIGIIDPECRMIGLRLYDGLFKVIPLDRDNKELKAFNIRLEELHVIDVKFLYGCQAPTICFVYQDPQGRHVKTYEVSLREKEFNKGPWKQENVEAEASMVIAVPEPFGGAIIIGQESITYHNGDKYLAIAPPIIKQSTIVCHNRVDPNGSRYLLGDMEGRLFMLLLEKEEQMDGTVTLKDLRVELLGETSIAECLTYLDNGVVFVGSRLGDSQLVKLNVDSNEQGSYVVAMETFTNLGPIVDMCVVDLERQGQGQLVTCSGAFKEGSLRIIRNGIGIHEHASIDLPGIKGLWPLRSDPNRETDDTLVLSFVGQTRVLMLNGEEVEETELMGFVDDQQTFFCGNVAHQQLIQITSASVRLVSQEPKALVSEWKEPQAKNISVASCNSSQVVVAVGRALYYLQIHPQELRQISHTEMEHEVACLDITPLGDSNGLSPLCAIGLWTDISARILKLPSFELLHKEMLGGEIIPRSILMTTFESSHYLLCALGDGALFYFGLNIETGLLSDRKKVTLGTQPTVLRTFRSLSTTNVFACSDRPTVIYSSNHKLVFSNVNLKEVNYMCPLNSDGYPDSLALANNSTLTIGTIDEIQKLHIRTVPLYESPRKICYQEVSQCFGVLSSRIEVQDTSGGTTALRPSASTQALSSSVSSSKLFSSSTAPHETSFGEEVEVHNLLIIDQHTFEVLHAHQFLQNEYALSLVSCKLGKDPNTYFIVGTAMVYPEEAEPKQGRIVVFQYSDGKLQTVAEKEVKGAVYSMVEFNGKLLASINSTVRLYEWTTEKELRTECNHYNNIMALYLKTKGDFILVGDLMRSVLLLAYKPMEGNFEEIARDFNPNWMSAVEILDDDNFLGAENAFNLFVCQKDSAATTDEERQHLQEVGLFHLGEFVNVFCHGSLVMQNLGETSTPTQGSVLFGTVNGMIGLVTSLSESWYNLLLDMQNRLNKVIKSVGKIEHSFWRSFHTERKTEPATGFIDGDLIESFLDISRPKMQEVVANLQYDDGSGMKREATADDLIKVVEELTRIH

GI50 (OCI-LY3 cells)	BTK (C481S) Amax % (BTK(C481S)-GFP)	DC50 (BTK(C481S)-GFP)	Structure (SMILES)	GI50 (TMD8 cells; 72 h)	GI50 (TMD8 cells; Homo sapiens, TMD8, 72 h)
7460 nM	2.0%	1.3 nM	COc1ccc(C(=O)N2CCC3(CCN(Cc4ccc(-c5cc6c(-c7cc(F)cc(NC(=O)N8C[C@@H](CC(C)C)[C@H](O)C8)c7C)ncnc6[nH]5)cc4)CC3)CC2)cc1N1CCC(=O)NC1=O (racemic) [Compound 5, trans-rac-N-(3-(6-(4-((9-(3-(2,4-Dioxotetrahydropyrimidin-1(2H)-yl)-4-methoxybenzoyl)-3,9-diazaspiro[5.5]undecan-3-yl)methyl)phenyl)-7H-pyrrolo[2,3-d]pyrimidin-4-yl)-5-fluoro-2-methylphenyl)-3-hydroxy-4-isobutylpyrrolidine-1-carboxamide]	0.73 nM	
> 10000 nM	2.9%	16 nM	COc1ccc(C(=O)N2CCC3(CCN(CCc4ccc(-c5cc6c(-c7cc(F)cc(NC(=O)N8C[C@@H](CC(C)C)[C@H](O)C8)c7C)ncnc6[nH]5)cc4)CC3)CC2)cc1N1CCC(=O)NC1=O [Compound 19, (3S,4R)—N-(3-(6-(4-(2-(9-(3-(2,4-dioxotetrahydropyrimidin-1(2H)-yl)-4-methoxybenzoyl)-3,9-diazaspiro[5.5]undecan-3-yl)ethyl)phenyl)-7H-pyrrolo[2,3-d]pyrimidin-4-yl)-5-fluoro-2-methylphenyl)-3-hydroxy-4-isobutylpyrrolidine-1-carboxamide]		4.87 nM

From US11541056B2, “3-hydroxy-N-(3-(7H-pyrrolo[2,3-d]pyrimidin-4-yl)phenyl)pyrrolidine-1-carboxamide derivatives” (NOVARTIS AG, priority 2018, dated 2023)
